Measurements as given in patent US7208505B2, “β3 adrenergic agonists” (Eli Lilly and Company, priority 2001, dated 2007).

These molecules were tested against T1, human β3 adrenergic receptor (Homo sapiens, UniProt P13945) (assay: whole cell receptor coupled c-AMP assay (Emax relative to isoproterenol)). Settings: % intrinsic activity relative to isoproterenol; transfected CHO cells.
T1 construct: expressed in transfected cells
Type: cell-based
Method in brief: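 Stably transfected CHO DXB-11 cells expressing human β3 receptor incubated 20 min at 37 °C with compound in HBSS/HEPES pH 7.4 containing 1 mM IBMX. cAMP measured by SPA; four-parameter logistic fit, Emax = maximal response as % of isoproterenol maximum.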

T1 sequence (P13945 whole entry): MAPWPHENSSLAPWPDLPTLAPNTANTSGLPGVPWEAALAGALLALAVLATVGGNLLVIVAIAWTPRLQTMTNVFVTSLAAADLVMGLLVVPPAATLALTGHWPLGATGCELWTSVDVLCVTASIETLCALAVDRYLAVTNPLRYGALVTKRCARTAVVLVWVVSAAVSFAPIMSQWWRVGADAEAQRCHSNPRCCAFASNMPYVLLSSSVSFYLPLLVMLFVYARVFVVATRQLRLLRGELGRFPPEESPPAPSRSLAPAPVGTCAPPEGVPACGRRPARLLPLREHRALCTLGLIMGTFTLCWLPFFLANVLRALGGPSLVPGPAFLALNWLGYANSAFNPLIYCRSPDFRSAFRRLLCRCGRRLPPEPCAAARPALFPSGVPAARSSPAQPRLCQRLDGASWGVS

Row | SMILES | Emax [%]
1 | C[C@@H](Cc1c[nH]c2c(F)cc(F)cc12)NC[C@H](O)COc1ccccc1-c1cccs1 [Example 194] | 25.6
2 | CC(Cc1c[nH]c2c(OCC#N)cccc12)NC[C@H](O)COc1ccccc1-c1ccno1 (some centres unmarked) [Example 199] | 22.8

Same assay, conditions: % intrinsic activity: maximal response divided by isoproterenol maximal response times 100; transfected CHO cells; average of at least 3 runs

Row | SMILES | Emax (%) ± SEM [%]
3 | CC(C)(Cc1c[nH]c2c(OCC(=O)O)cccc12)NC[C@H](O)COc1ccccc1-c1cccs1.Cl [Example 226] | 70.3 ± 5.7
4 | CC(C)(Cc1c[nH]c2ccc(C(N)=O)cc12)NC[C@H](O)COc1ccccc1-c1cccs1 [Example 71] | 47.4 ± 1.8
5 | CC(C)(Cc1c[nH]c2cc(C#N)ccc12)NC[C@H](O)COc1ccccc1-c1cccs1 [Example 77] | 73.9 ± 1.3
6 | C[C@H](CN1CCc2ccccc21)NC[C@H](O)COc1ccccc1-c1ccon1 [Example 129] | 35.2 ± 3.3
7 | C[C@@H](Cc1c[nH]c2c(OCC#N)cccc12)NC[C@H](O)COc1ccccc1-c1nncs1 [Example 161] | 21.7 ± 3.1
8 | CC(C)(Cc1c[nH]c2ccccc12)NC[C@H](O)COc1ccccc1-c1cscn1 [Example 79] | 58.2 ± 2.3
9 | CC(C)(Cc1c[nH]c2c(C=CS(C)(=O)=O)cccc12)NCC(O)COc1ccccc1-c1cccs1 (centres unmarked) [Example 141] | 65.0 ± 2.0
10 | Cc1cc(-c2ccccc2OC[C@@H](O)CNC(C)(C)Cc2c[nH]c3c(OCC#N)cccc23)on1.O=C(O)C(F)(F)F [Example 10] | 63.2 ± 5.3
11 | CC(C)(Cc1c[nH]c2ccccc12)NC[C@H](O)COc1ccccc1-c1cccs1 [Example 157] | 51.3 ± 7.8
12 | Cc1cc(-c2ccccc2OC[C@@H](O)CNC(C)(C)Cc2c[nH]c3c(OCC#N)cccc23)cs1.O=C(O)C(F)(F)F [Example 18] | 52.3 ± 0.7
13 | CC(C)(Cc1c[nH]c2ccccc12)NC[C@H](O)COc1ccc(F)cc1-c1ccon1 [Example 80] | 43.4 ± 2.0
14 | Cc1cc2c(OCC#N)cccc2n1C[C@@H](C)NC[C@H](O)COc1ccccc1-c1cccs1 [Example 156] | 41.9 ± 9.3
15 | C[C@H](Cn1ccc2c(OCC#N)cccc21)NC[C@H](O)COc1ccccc1-c1cccs1 [Example 152] | 63.1 ± 4.4

Further lines, results first:

Row | Emax (%) ± SEM [%] | SMILES
16 | 36.3 ± 1.8 | C[C@H](NC[C@H](O)COc1ccccc1-c1cccs1)C(=O)N1CCc2ccccc21 [Example 130]
17 | 57.9 ± 6.2 | CC(C)(Cc1c[nH]c2c(-c3ccsc3)cccc12)NC[C@H](O)COc1ccccc1-c1ccon1 [Example 107]
18 | 72.5 ± 2.2 | COC(=O)c1ccc(-c2cccc3c(CC(C)(C)NC[C@H](O)COc4ccccc4-c4cccs4)c[nH]c23)cc1 [Example 178]
19 | 82.0 ± 4.3 | CC(C)(Cc1c[nH]c2c(-c3cccc(C(F)(F)F)c3)cccc12)NC[C@H](O)COc1ccccc1-c1cccs1 [Example 37]
20 | 44.3 ± 3.9 | CC(C)(Cc1c[nH]c2c(OCC#N)cccc12)NC[C@H](O)COc1ccccc1-c1nncs1 [Example 160]
21 | 36.1 ± 7.6 | COC(=O)c1ccc(-c2ccccc2OC[C@@H](O)CNC(C)(C)Cc2c[nH]c3ccccc23)s1 [Example 124]
22 | 66.6 ± 3.1 | COC(=O)c1ccc(-c2cccc3c(CC(C)(C)NC[C@H](O)COc4ccccc4-c4cccs4)c[nH]c23)cc1 [Example 43]
23 | 90.0 ± 6.6 | CC(C)(Cc1c[nH]c2c(NS(C)(=O)=O)cccc12)NC[C@H](O)COc1ccccc1-c1ccc(S(N)(=O)=O)s1 [Example 30]
24 | 60.6 ± 2.4 | CC(C)(Cc1c[nH]c2c(OCC#N)cccc12)NC[C@H](O)COc1ccccc1-c1ccon1 [Example 133]
25 | 70.9 ± 5.4 | CC(C)(Cc1c[nH]c2c(NS(=O)(=O)c3ccccc3)cccc12)NC[C@H](O)COc1ccccc1-c1ccon1 [Example 26]
26 | 69.6 ± 4.8 | CC(C)(Cc1c[nH]c2cc(F)ccc12)NC[C@H](O)COc1ccccc1-c1cccs1 [Example 158]
27 | 62.4 ± 2.1 | CC(C)(Cc1c[nH]c2ccccc12)NC[C@H](O)COc1ccccc1-c1cocn1 [Example 31]
28 | 86.5 ± 5.5 | CC(C)(Cc1c[nH]c2c(C=CC(N)=O)cccc12)NCC(O)COc1ccccc1-c1cccs1 (centres unmarked) [Example 139]
29 | 55.6 ± 6.0 | CC(C)(NC[C@H](O)COc1ccccc1-c1cccs1)C(=O)N1CCc2ccccc21 [Example 192]
30 | 71.5 ± 1.1 | CC(=O)Nc1ccc(-c2cccc3c(CC(C)(C)NC[C@H](O)COc4ccccc4-c4cccs4)c[nH]c23)cc1 [Example 179]
31 | 71.2 ± 1.2 | CC(C)(Cc1c[nH]c2c(F)cccc12)NC[C@H](O)COc1ccccc1-c1cccs1 [Example 170]
32 | 66.0 ± 3.6 | CC(C)(Cc1c[nH]c2c(OCC#N)cccc12)NCC(O)COc1ccccc1-c1ccoc1 (centres unmarked) [Example 5]
33 | 68.9 ± 2.6 | CC(C)(Cc1c[nH]c2c(OCC(N)=O)cccc12)NC[C@H](O)COc1ccccc1-n1cccc1 [Example 3]
34 | 68.2 ± 2.2 | CC(=O)c1cccc(-c2cccc3c(CC(C)(C)NC[C@H](O)COc4ccccc4-c4cccs4)c[nH]c23)c1 [Example 46]

Same assay, conditions: CHO, % intrinsic activity: maximal response divided by isoproterenol maximal response times 100; transfected CHO cells; average of at least 3 runs

Row | Emax [%] | SMILES
35 | 85 ± 4.9 | CC(C)(Cc1c[nH]c2c(OCC3=NCCS3)cccc12)NC[C@H](O)COc1ccccc1-c1cccs1 [Example 231]
36 | 66.4 ± 6.4 | CC(C)(Cc1c[nH]c2c(OCC(=O)O)cccc12)NC[C@H](O)COc1ccccc1-c1nccs1 [Example 234]
37 | 68.8 ± 7.8 | CC(C)(Cc1c[nH]c2c(-c3cccc(C(=O)O)c3)cccc12)NC[C@H](O)COc1ccccc1-c1ccon1 [Example 249]
38 | 81.3 ± 2.4 | CC(C)(Cc1c[nH]c2c(/C=C/c3nnn[nH]3)cccc12)NC[C@H](O)COc1ccccc1-c1cccs1 [Example 230]
